Where a SMILES comes first, the peptide text is derived from it. [ ]: non-standard residue; d: D form.
Each compound was assayed on MS-1 cells (assay: [Ca2+]i mobilization assay in MS-1 cells). Details: three experiments, read-out: Mean EC50 (μM), dose-dependent changes in intracellular Ca2+.
Assay type: cell-based, murine
Method: Cells were incubated with 4 μM Fura-2 AM and 250 μM sulfinpyrazone in serum-free DMEM medium at 37° C. for 30 min with continuous stirring. The cells were then washed with Locke's solution (M. Faehling, et al., FASEB J 16 (2002), pp. 1805-1807) and diluted to 2×10^6 cells/mL. 50 μL aliquots of cell suspension were added to each well of a 96-well plate, and the change in fluorescence ratio was determined at dual excitation wavelengths of 340 and 380 nm and emission wavelength of 500 nm following addition of peptides. Plates were read immediately following the addition of peptide pools, resulting in a time delay of approximately 5 s between peptide addition and detection by the FLEXstation (Molecular Devices). Negative and positive controls were run simultaneously with test samples to ensure that all samples were subjected to identical conditions. The calibration of the fluorescence ratio in terms of [Ca^2+]i was performed according to Grynkiewicz et al. J Biol Chem 260 (1985), pp. 3440-3450.
To identify peptides that stimulate intracellular calcium mobilization in murine endothelial cells (MS-1 cells), the inventors screened 114 pools of C-terminally amidated synthetic hexapeptides.

Compound | EC50
CC(C)C[C@H](NC(=O)[C@H](CCCCN)NC(=O)[C@H](Cc1ccccc1)NC(=O)[C@@H](N)CO)C(=O)N[C@H](CCCNC(=N)N)C(=O)N[C@@H](Cc1ccc(O)cc1)C(N)=O [SEQ ID NO 7, SFKLrY-NH2(d-form)] (H-SFKL[dR]Y-NH2; N-terminus assumed) | > 100 µM
CC[C@H](C)[C@H](NC(=O)[C@H](Cc1ccccc1)NC(=O)[C@@H](N)CO)C(=O)N[C@@H](CC(C)C)C(=O)N[C@@H](CCCNC(=N)N)C(=O)N[C@@H](Cc1ccc(O)cc1)C(N)=O [SEQ ID NO 17, SFILRY-NH2] (H-SFILRY-NH2; N-terminus assumed) | 0.99 µM
CC[C@H](C)[C@H](NC(=O)[C@H](Cc1ccccc1)NC(=O)[C@@H](N)CO)C(=O)N[C@@H](CC(C)C)C(=O)N[C@@H](CCCNC(=N)N)C(=O)N[C@@H](CCCNC(=N)N)C(N)=O [SEQ ID NO 18, SFILRR-NH2] (H-SFILRR-NH2; N-terminus assumed) | 0.97 µM
CC(C)C[C@H](NC(=O)[C@H](CCCCN)NC(=O)[C@H](Cc1ccccc1)NC(=O)[C@@H](N)CO)C(=O)N[C@@H](CCCNC(=N)N)C(=O)N[C@@H](Cc1c[nH]cn1)C(N)=O [SEQ ID NO 23, SFKLRH-NH2] (H-SFKLRH-NH2; N-terminus assumed) | 3.6 µM
CC(C)C[C@H](NC(=O)[C@H](CCCCN)NC(=O)[C@H](Cc1ccccc1)NC(=O)[C@@H](N)CO)C(N)=O [SEQ ID NO 13, SFKL-NH2] (H-SFKL-NH2; N-terminus assumed) | > 50 µM
CC(C)C[C@H](NC(=O)[C@H](CCCCN)NC(=O)[C@H](Cc1ccccc1)NC(=O)[C@@H](N)CO)C(=O)N[C@@H](CCCNC(=N)N)C(=O)N[C@@H](CCCNC(=N)N)C(N)=O [SEQ ID NO 16, SFKLRR-NH2] (H-SFKLRR-NH2; N-terminus assumed) | 2.66 µM
CC(C)C[C@H](NC(=O)[C@H](CCCCN)NC(=O)[C@H](Cc1ccccc1)NC(=O)[C@@H](N)CO)C(=O)N[C@@H](CCCNC(=N)N)C(=O)N[C@@H](Cc1ccc(O)cc1)C(=O)O [SEQ ID NO 1, SFKLRY-COOH] (H-SFKLRY-OH; N-terminus assumed) | > 10 µM
CC(C)C[C@H](NC(=O)[C@H](CCCNC(=N)N)NC(=O)[C@H](Cc1ccccc1)NC(=O)[C@@H](N)CO)C(=O)N[C@@H](CCCNC(=N)N)C(=O)N[C@@H](Cc1ccc(O)cc1)C(N)=O [SEQ ID NO 15, SFRLRY-NH2] (H-SFRLRY-NH2; N-terminus assumed) | 0.97 µM

Continued, values first:

EC50 | Compound
6.19 µM | CC(C)C[C@H](NC(=O)[C@H](CCCCN)NC(=O)[C@H](Cc1ccccc1)NC(=O)[C@@H](N)CO)C(=O)N[C@@H](CCCNC(=N)N)C(N)=O [SEQ ID NO 12, SFKLR-NH2] (H-SFKLR-NH2; N-terminus assumed)
3.87 µM | CC(C)C[C@H](NC(=O)[C@H](CCCCN)NC(=O)[C@H](Cc1ccccc1)NC(=O)[C@@H](N)[C@@H](C)O)C(=O)N[C@@H](CCCNC(=N)N)C(=O)N[C@@H](Cc1ccc(O)cc1)C(N)=O [SEQ ID NO 24, TFKLRY-NH2] (H-TFKLRY-NH2; N-terminus assumed)
3.16 µM | CC(C)C[C@H](NC(=O)[C@H](CCCCN)NC(=O)[C@H](Cc1ccccc1)NC(=O)[C@@H](N)CO)C(=O)N[C@@H](CCCNC(=N)N)C(=O)N[C@@H](Cc1ccccc1)C(N)=O [SEQ ID NO 21, SFKLRF-NH2] (H-SFKLRF-NH2; N-terminus assumed)
2.37 µM | CC(C)C[C@H](NC(=O)[C@H](CCCCN)NC(=O)[C@H](Cc1ccccc1)NC(=O)[C@@H](N)CO)C(=O)N[C@@H](CCCNC(=N)N)C(=O)N[C@@H](Cc1c[nH]c2ccccc12)C(N)=O [SEQ ID NO 19, SFKLRW-NH2] (H-SFKLRW-NH2; N-terminus assumed)
2.01 µM | CC[C@H](C)[C@H](NC(=O)[C@H](Cc1ccccc1)NC(=O)[C@@H](N)CO)C(=O)N[C@@H](CC(C)C)C(=O)N[C@@H](CCCNC(=N)N)C(=O)N[C@@H](Cc1ccccc1)C(N)=O [SEQ ID NO 22, SFILRF-NH2] (H-SFILRF-NH2; N-terminus assumed)
1.98 µM | CC[C@H](C)[C@H](NC(=O)[C@H](Cc1ccccc1)NC(=O)[C@@H](N)CO)C(=O)N[C@@H](CC(C)C)C(=O)N[C@@H](CCCNC(=N)N)C(=O)N[C@@H](Cc1c[nH]c2ccccc12)C(N)=O [SEQ ID NO 20, SFILRW-NH2] (H-SFILRW-NH2; N-terminus assumed)
1.21 µM | CC(C)C[C@H](NC(=O)[C@H](CCCCN)NC(=O)[C@H](Cc1ccccc1)NC(=O)[C@@H](N)CO)C(=O)N[C@@H](CCCNC(=N)N)C(=O)N[C@@H](Cc1ccc(O)cc1)C(N)=O [SEQ ID NO 2, SFKLRY-NH2] (H-SFKLRY-NH2; N-terminus assumed)
1.14 µM | CC(C)C[C@H](NC(=O)[C@H](CCCCN)NC(=O)[C@H](Cc1ccccc1)NC(=O)[C@@H](N)CO)C(=O)N[C@@H](CCCNC(=N)N)C(=O)N[C@H](Cc1ccc(O)cc1)C(N)=O [SEQ ID NO 8, SFKLRy-NH2(d-form)] (H-SFKLR[dY]-NH2; N-terminus assumed)

What follows are compounds tested on MS-1 cells (assay: Suppression of SFKLRY-NH2-induced [Ca2+]i increase in MS-1 cells by inhibitors). Details: 100 ng/mL for 2 h prior to SFKLRY-NH2.
Assay type: cell-based, murine
Method: FIGS. 3A-3B show BAPTA, U73122 and PTX suppressed SFKLRY-NH2-induced [Ca^2+]i increase in MS-1 cells. […] (A) The cells were pre-incubated in DMEM containing 10 μM BAPTA-AM with Fluo-4/AM for 30 min at 37° C. Cells were suspended in Ca^2+-free Locke's solution containing 0.2 mM EGTA and treated with indicated concentrations of SFKLRY-NH2 (SEQ ID NO: 2). The change in fluorescence intensity was determined with excitation at 488 nm and the emission at 520 nm. (B) Cells were preincubated with or without U73122 (10 μM), U73433 (10 μM) for 30 min, and PTX (100 ng/mL) for 2 h with Fura-2, respectively. Fura-2-loaded cells were then suspended in Ca^2+-free Locke's solution and then treated with 1 μM SFKLRY-NH2 (SEQ ID NO: 2). The data are represent means±3 independent experiments each performed in triplicate. *P<0.05.

Compound | effect on peptide-dependent intracellular Ca2+ mobilization
Pertussis toxin [PTX] | remarkably attenuated

Same assay, conditions: 10 μM preloading; Ca2+-free Locke's solution with 0.2 mM EGTA

Compound | effect on peptide-induced [Ca2+]i increase
CC(=O)OCOC(=O)CN(CC(=O)OCOC(C)=O)c1ccccc1OCCOc1ccccc1N(CC(=O)OCOC(C)=O)CC(=O)OCOC(C)=O [BAPTA-AM, 1,2-bis(2-aminophenoxy)ethane-N,N,N′,N′-tetraacetoxymethyl ester] | completely abolished

Same assay, conditions: 10 μM, 30 min preincubation; 1 μM SFKLRY-NH2

Compound | effect on peptide-induced intracellular calcium mobilization
COc1ccc2c(c1)CC[C@@H]1[C@@H]2CC[C@]2(C)[C@@H](NCCCCCCN3C(=O)C=CC3=O)CC[C@@H]12 [U73122] | completely abolished
COc1ccc2c(c1)CC[C@@H]1[C@@H]2CC[C@]2(C)[C@@H](NCCCCCCN3C(=O)CCC3=O)CC[C@@H]12 [U73433] | little inhibitory effect

What follows are compounds tested on Rat aortic explants (assay: Aortic ring assay (vessel sprouting ex vivo)). Details: 50 ng/mL co-treatment with SFKLRY-NH2 1 μM; 7 days.
Assay type: cell-based
Method: The method developed by Nicosia and Ottinetti in In Vitro Cell Dev Biol 26 (1990), pp. 119-128 was used with some modifications. Aortas were harvested from 6-week-old Sprague-Dawley rats. After removing the surrounding fibro-adipose tissues, the rings were immersed in Matrigel in wells within culture dishes. The aortic rings were cultured (5% CO2, 37° C.) in serum-free M199 containing SFKLRY-NH2 (SEQ ID NO: 2), S1P, FYSRLK-NH2, or VEGF in the presence or absence of PTX or U73122. On day 7, sprouting from aortic explants was measured.
To address whether SFKLRY-NH2 (SEQ ID NO: 2) plays a role in sprouting of vascular endothelial cells ex vivo, aortic rings were analyzed in the presence of various stimuli including 1 μM SFKLRY-NH2 (SEQ ID NO: 2), 10 ng/mL VEGF, 10 nM S1P, and 10% FBS. […] Rat aortic explants in Matrigel were incubated with M-199 harboring SFKLRY-NH2 (SEQ ID NO: 2) (1 μM), FYSRLK-NH2 (1 μM), S1P (10 nM), VEGF (10 ng/mL), SFKLRY-NH2 (SEQ ID NO: 2) (1 μM) with U73122 (10 μM) or PTX (50 ng/mL), or 10% FBS and photographed after incubation for 7 days. Three independent experiments were then conducted, each in duplicate.

Compound | effect on vessel sprouting promoted by SFKLRY-NH2
Pertussis toxin [PTX] | markedly attenuated

Same assay, conditions: 10 μM co-treatment with SFKLRY-NH2 1 μM; 7 days

Compound | effect on vessel sprouting promoted by SFKLRY-NH2
COc1ccc2c(c1)CC[C@@H]1[C@@H]2CC[C@]2(C)[C@@H](NCCCCCCN3C(=O)C=CC3=O)CC[C@@H]12 [U73122] | markedly attenuated

Reference: US9925398B2, “Angiogenic peptide” (NOVACELL TECHNOLOGY INC., priority 2008, dated 2018)
